Reference: US20070264355A1, “BINARY COMPOSITIONS AND METHODS FOR STERILIZATION” (Binary, LLC, priority 2005, published 2007)
Entries after “also recorded” stand apart in the source; their conditions may differ.

Columns and labels:
Format in all cases: cell-based
[1] = test system: Staphylococcus aureus (ATCC 6538); test: Microbicidal activity against Staphylococcus aureus (suspension test, surviving CFU)
Description: Bacterial suspensions, specifically Staphylococcus aureus (ATCC 6538) in this example, were prepared by the shake flask method to achieve late log to early stationary phase growth. Bacteria were grown 24 hours in trypticase soy broth (TSB) at 35° C. The cultures were centrifuged at 4,000 rpm for 10 minutes and the supernatants removed. The pellet was collected and washed twice with sterile 0.9% normal saline. The washed microorganisms were suspended and diluted with normal saline to a 3 McFarland standard, i.e., approximately 10^9 bacteria colony forming units (CFU) per ml. Actual colony counts are confirmed by serial dilutions (10^−1 to 10^−5 or 10^−6) plated on trypticase soy agar (TSA) and incubated overnight at 35° C. One hundred microliters of organisms from a stock of 10^7 CFU/ml were used to obtain an approximate final working target inoculum of 10^6 CFU. The microbicidal test is conducted in a vial containing 1.4 ml of final reaction mixture after neutralization.
(§1) Each solution was used alone for the individual controls. Organism suspensions were used to achieve a final target concentration of 2-3×10^6 CFU per ml. For the binary system treatments, sodium hypochlorite solution and hydrogen peroxide solution, non-acidified or acidified, were sequentially added to the microorganisms. Acidified hydrogen peroxide solution was obtained by the addition of 1.0% v/v of 0.001 N hydrochloride solution. After each addition, the resulting mixture was allowed to remain in contact with the organisms for a set amount of time at room temperature (about 22° C.), as listed in the Tables 1 and 2. At the end of the treatment time, the mixtures were neutralized with 200 to 500 microliters of thiosulfate solution (2.4%) to quench the activity of sodium hypochlorite and then treated with 100 to 200 microliters of a 1% catalase solution, containing a minimum of 100 units/ul, to quench the hydrogen peroxide activity. If needed, an appropriate volume of sterile saline was added to bring the final volume of reaction mixture to 1.4 ml after neutralization. Serial dilution plate counts were performed from the contents of each vial in sterile saline and inoculated onto TSA for quantitative culture. Plates were then incubated at 37° C. and counts taken at 24 hours.
After an additional 30 minutes, the binary system mixture was then neutralized using 2.4% thiosulfate followed by 1% catalase as described in the Methods Section.

[2] = test system: Bacillus subtilis (ATCC 19659) spores; test: Microbicidal activity against Bacillus subtilis spores (suspension test, surviving CFU)
Excerpt: as §1
Suspensions of Bacillus subtilis (ATCC 19659) containing 100% spores, as confirmed by microscopy, were obtained by washing the spun-down cells with 50% ethanol to eliminate the vegetative form. Starting inoculum of approximately 1-3×10^6 CFU was used as in Example 1.
[…] The binary system was neutralized 30 minutes after addition of hydrogen peroxide using 2.4% thiosulfate and 1% catalase as described in Example 1.

[3] = test system: Escherichia coli (ATCC 25922); test: Microbicidal activity against Escherichia coli (suspension test, surviving CFU); settings: H2O2 88 mM 15 min; inoculum 1630000 CFU
Excerpt: as §1, with “hours. […]” for “hours.”

[4] = H2O2 0.35 mM 30 min, inoculum 2530000 CFU
[5] = H2O2 88 mM 5 min, inoculum 1600000 CFU
[6] = H2O2 88 mM 15 min, inoculum 1600000 CFU
[7] = H2O2 88 mM 30 min, inoculum 1600000 CFU
[8] = H2O2 294 mM 5 min, inoculum 1600000 CFU
[9] = H2O2 294 mM 15 min, inoculum 1600000 CFU
[10] = H2O2 294 mM 30 min, inoculum 1600000 CFU
[11] = H2O2 882 mM 5 min, inoculum 1600000 CFU
[12] = H2O2 882 mM 15 min, inoculum 1600000 CFU
[13] = H2O2 882 mM 30 min, inoculum 1600000 CFU
[14] = H2O2 2940 mM 5 min, inoculum 1600000 CFU
[15] = H2O2 2940 mM 15 min, inoculum 1600000 CFU
[16] = H2O2 2940 mM 30 min, inoculum 1600000 CFU
[17] = H2O2 8821 mM 5 min, inoculum 1600000 CFU
[18] = H2O2 8821 mM 15 min, inoculum 1600000 CFU
[19] = H2O2 8821 mM 30 min, inoculum 1600000 CFU
[20] = H2O2 35.25 mM 30 min, inoculum 1120000 CFU
[21] = H2O2 88 mM 60 min, inoculum 1865000 CFU
[22] = H2O2 294 mM 60 min, inoculum 1865000 CFU
[23] = H2O2 882 mM 60 min, inoculum 1865000 CFU
[24] = H2O2 2940 mM 60 min, inoculum 1865000 CFU
[25] = H2O2 8821 mM 60 min, inoculum 1865000 CFU

OO [H2O2, hydrogen peroxide]
Log 10 (CFU + 1) Survivors [1, 4]: 6.2
Log Reduction [1, 4]: 0.2
Total Viability (CFU) [1, 4]: 1764000 CFU
Log 10 (CFU + 1) Survivors [1, 5]: 6.2
Log Reduction [1, 5]: 0.0
Total Viability (CFU) [1, 5]: 1694000 CFU
Log 10 (CFU + 1) Survivors [1, 6]: 6.3
Log Reduction [1, 6]: −0.1
Total Viability (CFU) [1, 6]: 2044000 CFU
Log 10 (CFU + 1) Survivors [1, 7]: 6.3
Log Reduction [1, 7]: −0.1
Total Viability (CFU) [1, 7]: 1792000 CFU
Log 10 (CFU + 1) Survivors [1, 8]: 6.1
Log Reduction [1, 8]: 0.1
Total Viability (CFU) [1, 8]: 1288000 CFU
Log 10 (CFU + 1) Survivors [1, 9]: 6.1
Log Reduction [1, 9]: 0.1
Total Viability (CFU) [1, 9]: 1190000 CFU
Log 10 (CFU + 1) Survivors [1, 10]: 1.3
Log Reduction [1, 10]: 4.9
Total Viability (CFU) [1, 10]: 21 CFU
Log 10 (CFU + 1) Survivors [1, 11]: 4.1
Log Reduction [1, 11]: 2.1
Total Viability (CFU) [1, 11]: 12040 CFU
Log 10 (CFU + 1) Survivors [1, 12]: 0.0
Log Reduction [1, 12]: 6.2
Total Viability (CFU) [1, 12]: 0 CFU
Log 10 (CFU + 1) Survivors [1, 13]: 0.0
Log Reduction [1, 13]: 6.2
Total Viability (CFU) [1, 13]: 0 CFU
Log 10 (CFU + 1) Survivors [1, 14]: 0.0
Log Reduction [1, 14]: 6.2
Total Viability (CFU) [1, 14]: 0 CFU
Log 10 (CFU + 1) Survivors [1, 15]: 0.0
Log Reduction [1, 15]: 6.2
Total Viability (CFU) [1, 15]: 0 CFU
Log 10 (CFU + 1) Survivors [1, 16]: 0.0
Log Reduction [1, 16]: 6.2
Total Viability (CFU) [1, 16]: 0 CFU
Log 10 (CFU + 1) Survivors [1, 17]: 0.0
Log Reduction [1, 17]: 6.2
Total Viability (CFU) [1, 17]: 0 CFU
Log 10 (CFU + 1) Survivors [1, 18]: 0.0
Log Reduction [1, 18]: 6.2
Total Viability (CFU) [1, 18]: 0 CFU
Log 10 (CFU + 1) Survivors [1, 19]: 0.0
Log Reduction [1, 19]: 6.2
Total Viability (CFU) [1, 19]: 0 CFU
microbicidal activity (kill of inoculum) ([1]; highest concentration of hydrogen peroxide used in the binary system, tested alone): completely ineffective and produced no kill
microbicidal activity (kill of inoculum) ([1]; hydrogen peroxide 88 mM, within 30 minutes): no microbicidal activity; also recorded: not microbicidal
microbicidal activity (kill of inoculum) ([1]; hydrogen peroxide 8821 and 2940 mM, within 5 minutes, 6.2 log10 CFU inoculum): complete kill
microbicidal activity (kill of inoculum) ([1]; hydrogen peroxide intermediate concentrations): partial kill
Log 10 (CFU + 1) Survivors [2, 20]: 6.1
Log Reduction [2, 20]: −0.1
Total Viability (CFU) [2, 20]: 1358000 CFU
Log 10 (CFU + 1) Survivors [2, 21]: 6.3
Log Reduction [2, 21]: 0.0
Total Viability (CFU) [2, 21]: 1974000 CFU
Log 10 (CFU + 1) Survivors [2, 22]: 6.2
Log Reduction [2, 22]: 0.1
Total Viability (CFU) [2, 22]: 1484000 CFU
Log 10 (CFU + 1) Survivors [2, 23]: 5.3
Log Reduction [2, 23]: 1.0
Total Viability (CFU) [2, 23]: 200200 CFU
Log 10 (CFU + 1) Survivors [2, 24]: 2.8
Log Reduction [2, 24]: 3.5
Total Viability (CFU) [2, 24]: 588 CFU
Log 10 (CFU + 1) Survivors [2, 25]: 0.0
Log Reduction [2, 25]: 6.3
Total Viability (CFU) [2, 25]: 0 CFU
microbicidal activity (kill of inoculum) ([2]; hydrogen peroxide 8821 mM, within 60 minutes, 6.3 log10 CFU inoculum): complete kill
microbicidal activity (kill of inoculum) ([2]; hydrogen peroxide 294 to 88 mM, within 60 minutes): no microbicidal activity
microbicidal activity (kill of inoculum) ([2]; hydrogen peroxide 2940 and 882 mM, 60 minutes): partial kill
Log 10 (CFU + 1) Survivors [3]: 5.8
Log Reduction [3]: 0.4
Total Viability (CFU) [3]: 588000 CFU
